Data as given in publication PMC11791039, “A split intein and split luciferase-coupled system for detecting protein-protein interactions” (Molecular Systems Biology, 2024).
Values joined by “and” are separate entries in the source; they are usually repeats but may differ in a detail not shown here. Equal entries are not always repeated.

Legend:
Assay type in all cases: cell-based
EGFR(WT)/SHC1 = target: T1, EGFR(WT)/SHC1 (Homo sapiens, UniProt P00533); experiment: SIMPL2 assay EGFR(WT)/SHC1; conditions: for normalized SIMPL2 signal EGFR/SHC1 (Fig. 3A source data): 16 h, replicates 1-3
T1 construct: β10-IN (tNLuc β10 peptide + GP41-1 split intein N fragment) (C); V5; expressed in transfected cells

HRAS/RBD = target: T2, HRAS/RBD (Homo sapiens, UniProt P01112); experiment: SIMPL2 assay HRAS/RBD; conditions: 16 h; for normalized SIMPL2 signal HRAS/RBD (Fig. 3A source data): replicates 1-3
T2 construct: IC-β9 (GP41-1 split intein C fragment + tNLuc β9 peptide) (N); FLAG; expressed in transfected cells

KRAS(G12C)/RBD = target: T3, KRAS(G12C)/RBD (Homo sapiens, UniProt P01116, G12C); experiment: SIMPL2 assay KRAS(G12C)/RBD; conditions: for SIMPL2 signal, KRAS(G12C)/RBD (Fig. 4A): replicates 1-4
T3 construct: IC-β9 (GP41-1 split intein C fragment + tNLuc β9 peptide) (N); FLAG; expressed in transfected cells

MDM2/MDM4 interaction = target: T4, MDM2/MDM4 interaction (Homo sapiens, UniProt O15151+Q00987); experiment: SIMPL2 assay MDM2/MDM4; conditions: for SIMPL2 signal, MDM2/MDM4 (Fig. 4A): replicates 1-4
T4 construct: β10-IN (tNLuc β10 peptide + GP41-1 split intein N fragment) (C); V5; IC-β9 (GP41-1 split intein C fragment + tNLuc β9 peptide) (N); FLAG; expressed in transfected cells
Procedure: We next tested the system with molecular glues, which are small molecule compounds that induce target protein interaction. […] To clarify, the two protein molecules are anchored together through a pair of dimerized RO-5963 molecules. […] Therefore, its binding kinetics display a monophasic change.
Figure 4 Evaluation of SIMPL2 as a drug discovery tool using molecular glue and PROTACs. […] Samples were measured and normalized as described in Materials and Methods. […] The cells were then subjected to SIMPL2 luciferase measurement, and the raw values are plotted.
Stable cells of target protein pair were created using Cas9 CRISPR. To characterize PPI modulators, the cells were seeded in 384 well plate (10,000 cells/well) and incubated for 5 h. […] Average signal of wells without either deoxycycline or compound treatment was used as blank or ‘floor’ signal (SF). The average signal of wells with deoxycycline treatment but without compound treatment was used as maximal interaction or ‘ceiling’ (SC). SIMPL2 reading of each sample (Ssample) was normalized according to the formula S^*sample = (Ssample– SF)/(SC– SF) x 100%, in which S^*sample stands for normalized signal. The normalized data of inhibitor experiments were fitted into a four-parameter inhibitor-response model.

T2 sequence (P01112 whole entry, the tested form may be a part): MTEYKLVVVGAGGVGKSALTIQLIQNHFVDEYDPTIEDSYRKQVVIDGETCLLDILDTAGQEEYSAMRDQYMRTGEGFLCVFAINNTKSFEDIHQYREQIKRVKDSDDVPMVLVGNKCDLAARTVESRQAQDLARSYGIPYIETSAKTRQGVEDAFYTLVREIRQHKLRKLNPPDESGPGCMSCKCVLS
T4 sequence (Q00987 whole entry, the tested form may be a part): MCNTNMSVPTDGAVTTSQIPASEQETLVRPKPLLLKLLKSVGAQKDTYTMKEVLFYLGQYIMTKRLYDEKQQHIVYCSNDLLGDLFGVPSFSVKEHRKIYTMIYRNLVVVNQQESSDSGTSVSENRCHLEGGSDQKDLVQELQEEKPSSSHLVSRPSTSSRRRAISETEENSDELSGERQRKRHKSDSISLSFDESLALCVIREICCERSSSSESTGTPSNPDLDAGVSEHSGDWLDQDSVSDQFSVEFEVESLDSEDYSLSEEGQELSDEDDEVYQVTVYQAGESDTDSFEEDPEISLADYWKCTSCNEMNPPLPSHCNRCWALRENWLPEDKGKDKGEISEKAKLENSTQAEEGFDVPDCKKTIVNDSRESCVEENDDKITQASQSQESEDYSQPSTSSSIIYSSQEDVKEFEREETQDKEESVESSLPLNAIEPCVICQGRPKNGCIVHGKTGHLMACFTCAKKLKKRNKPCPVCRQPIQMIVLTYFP
T4 sequence (O15151 whole entry, the tested form may be a part): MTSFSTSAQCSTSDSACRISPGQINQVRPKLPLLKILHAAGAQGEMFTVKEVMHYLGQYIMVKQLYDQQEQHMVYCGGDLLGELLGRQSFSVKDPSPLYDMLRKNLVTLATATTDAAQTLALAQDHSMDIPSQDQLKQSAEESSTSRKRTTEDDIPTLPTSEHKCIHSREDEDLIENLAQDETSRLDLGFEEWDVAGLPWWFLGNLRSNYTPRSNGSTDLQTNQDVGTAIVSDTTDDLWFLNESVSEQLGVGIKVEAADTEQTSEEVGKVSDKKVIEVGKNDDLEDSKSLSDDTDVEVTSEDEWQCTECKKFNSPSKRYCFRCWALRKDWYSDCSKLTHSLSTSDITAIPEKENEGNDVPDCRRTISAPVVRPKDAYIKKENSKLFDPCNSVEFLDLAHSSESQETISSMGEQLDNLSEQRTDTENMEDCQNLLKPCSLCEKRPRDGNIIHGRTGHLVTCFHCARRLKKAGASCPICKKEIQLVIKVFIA
T1 sequence (P00533 25-1210): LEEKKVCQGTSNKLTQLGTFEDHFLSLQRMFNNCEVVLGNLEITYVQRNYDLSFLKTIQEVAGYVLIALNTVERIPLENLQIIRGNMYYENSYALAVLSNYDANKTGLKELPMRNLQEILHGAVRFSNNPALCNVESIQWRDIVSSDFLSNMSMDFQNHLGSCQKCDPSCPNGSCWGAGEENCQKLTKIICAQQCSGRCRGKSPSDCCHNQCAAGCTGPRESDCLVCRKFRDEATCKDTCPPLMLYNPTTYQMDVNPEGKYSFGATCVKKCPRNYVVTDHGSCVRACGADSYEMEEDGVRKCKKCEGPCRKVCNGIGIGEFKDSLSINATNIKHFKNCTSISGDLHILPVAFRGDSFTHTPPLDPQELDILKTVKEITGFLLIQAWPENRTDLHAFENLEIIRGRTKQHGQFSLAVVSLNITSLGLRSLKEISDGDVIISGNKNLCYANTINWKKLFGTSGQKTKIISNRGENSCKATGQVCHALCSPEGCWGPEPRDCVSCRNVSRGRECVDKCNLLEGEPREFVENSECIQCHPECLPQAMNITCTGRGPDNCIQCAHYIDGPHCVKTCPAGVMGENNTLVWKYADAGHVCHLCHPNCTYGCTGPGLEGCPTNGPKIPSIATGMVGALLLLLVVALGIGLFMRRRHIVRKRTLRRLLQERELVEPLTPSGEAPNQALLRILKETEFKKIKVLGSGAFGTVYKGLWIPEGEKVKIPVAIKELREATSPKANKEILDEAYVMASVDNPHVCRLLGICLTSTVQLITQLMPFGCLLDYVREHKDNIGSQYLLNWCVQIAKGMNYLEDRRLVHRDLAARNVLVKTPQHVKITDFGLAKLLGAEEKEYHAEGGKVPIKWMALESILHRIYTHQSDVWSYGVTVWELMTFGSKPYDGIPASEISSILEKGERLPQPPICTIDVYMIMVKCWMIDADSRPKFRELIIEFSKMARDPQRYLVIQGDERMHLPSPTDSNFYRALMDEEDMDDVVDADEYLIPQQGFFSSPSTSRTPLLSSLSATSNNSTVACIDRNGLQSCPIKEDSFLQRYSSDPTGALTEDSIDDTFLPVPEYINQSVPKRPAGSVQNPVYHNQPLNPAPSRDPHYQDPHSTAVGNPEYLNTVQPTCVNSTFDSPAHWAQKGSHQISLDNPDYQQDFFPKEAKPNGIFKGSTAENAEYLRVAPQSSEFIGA

C=CC(=O)N1CCN(c2nc(=O)n(-c3c(C)ccnc3C(C)C)c3nc(-c4c(O)cccc4F)c(F)cc23)[C@@H](C)C1 [sotorasib, Sotorasib]
normalized SIMPL2 signal EGFR/SHC1 (Fig. 3A source data) (EGFR(WT)/SHC1; AMG510 0.013717 uM): 102.175% and 103.017% and 94.8079%
normalized SIMPL2 signal EGFR/SHC1 (Fig. 3A source data) (EGFR(WT)/SHC1; AMG510 0.041152 uM): 78.9251% and 82.2027% and 70.7463%
normalized SIMPL2 signal EGFR/SHC1 (Fig. 3A source data) (EGFR(WT)/SHC1; AMG510 0.37037 uM): 78.0061% and 80.6558% and 79.5224%
normalized SIMPL2 signal EGFR/SHC1 (Fig. 3A source data) (EGFR(WT)/SHC1; AMG510 1.11111 uM): 94.2258% and 88.5129% and 91.668%
normalized SIMPL2 signal EGFR/SHC1 (Fig. 3A source data) (EGFR(WT)/SHC1; AMG510 3.33333 uM): 78.7566% and 76.4592% and 70.5625%
normalized SIMPL2 signal EGFR/SHC1 (Fig. 3A source data) (EGFR(WT)/SHC1; AMG510 10 uM): 53.0256% and 58.9069% and 63.3333%
inhibition of EGFR/SHC1 signal at high sotorasib concentrations (reviewer's reading of Fig. 3A) (EGFR(WT)/SHC1; peer review file, authors confirm for EGFR/SHC1 only): 40-50%
normalized SIMPL2 signal HRAS/RBD (Fig. 3A source data) (HRAS/RBD; AMG510 0.013717 uM): 95.6644% and 96.1454% and 108.19%
normalized SIMPL2 signal HRAS/RBD (Fig. 3A source data) (HRAS/RBD; AMG510 0.041152 uM): 82.7154% and 124.68% and 97.6847%
normalized SIMPL2 signal HRAS/RBD (Fig. 3A source data) (HRAS/RBD; AMG510 0.37037 uM): 80.291% and 76.1158% and 82.6769%
normalized SIMPL2 signal HRAS/RBD (Fig. 3A source data) (HRAS/RBD; AMG510 1.11111 uM): 79.0981% and 97.1459% and 96.2801%
normalized SIMPL2 signal HRAS/RBD (Fig. 3A source data) (HRAS/RBD; AMG510 3.33333 uM): 91.6238% and 112.808% and 96.8766%
normalized SIMPL2 signal HRAS/RBD (Fig. 3A source data) (HRAS/RBD; AMG510 10 uM): 106.247% and 100.629% and 127.854%
inhibition of HRAS/RBD interaction signal (HRAS/RBD; control cells): no significant inhibition

RO-5963
SIMPL2 signal, KRAS(G12C)/RBD (Fig. 4A) (KRAS(G12C)/RBD; RO-5963 0.013717 uM): 109.968 and 129.491
SIMPL2 signal, KRAS(G12C)/RBD (Fig. 4A) (KRAS(G12C)/RBD; RO-5963 0.041152 uM): 115.427 and 110.7 and 113.906 and 96.9775
SIMPL2 signal, KRAS(G12C)/RBD (Fig. 4A) (KRAS(G12C)/RBD; RO-5963 0.37037 uM): 127.273 and 113.795 and 114.951
SIMPL2 signal, KRAS(G12C)/RBD (Fig. 4A) (KRAS(G12C)/RBD; RO-5963 1.11111 uM): 136.524 and 105.719 and 127.623 and 137.333
SIMPL2 signal, KRAS(G12C)/RBD (Fig. 4A) (KRAS(G12C)/RBD; RO-5963 3.33333 uM): 110.236 and 106.312 and 130.946
SIMPL2 signal, KRAS(G12C)/RBD (Fig. 4A) (KRAS(G12C)/RBD; RO-5963 10 uM): 136.758 and 112.554 and 138.094 and 146.423
effect on KRAS(G12C)/RBD control interaction signal (KRAS(G12C)/RBD; doxycycline + compound 16 h, tested concentration range): not affected
concentration above which MDM2/MDM4 interaction declines (hook effect) (MDM2/MDM4 interaction; 16 h with doxycycline): above 3 μM
concentration above which MDM2/MDM4 interaction was observed (MDM2/MDM4 interaction; 16 h with doxycycline): above 0.3 μM
concentration of peak MDM2/MDM4 interaction (MDM2/MDM4 interaction; 16 h with doxycycline): 3 µM
SIMPL2 signal, MDM2/MDM4 (Fig. 4A) (MDM2/MDM4 interaction; RO-5963 0.013717 uM): 98.5373 and 90.6113 and 85.0033 and 102.575
SIMPL2 signal, MDM2/MDM4 (Fig. 4A) (MDM2/MDM4 interaction; RO-5963 0.041152 uM): 93.004 and 86.0501 and 89.041 and 96.2193
SIMPL2 signal, MDM2/MDM4 (Fig. 4A) (MDM2/MDM4 interaction; RO-5963 0.37037 uM): 155.514 and 142.28 and 150.579 and 141.083
SIMPL2 signal, MDM2/MDM4 (Fig. 4A) (MDM2/MDM4 interaction; RO-5963 1.11111 uM): 502.238 and 458.421 and 548.523 and 430.606
SIMPL2 signal, MDM2/MDM4 (Fig. 4A) (MDM2/MDM4 interaction; RO-5963 3.33333 uM): 934.354 and 877.9 and 842.009 and 825.259
SIMPL2 signal, MDM2/MDM4 (Fig. 4A) (MDM2/MDM4 interaction; RO-5963 10 uM): 374.451 and 365.777 and 368.394 and 378.937
